Data on 35 compounds can be found in patent US20240173419A1, “CDK2 DEGRADERS AND USES THEREOF” (Kymera Therapeutics, Inc., priority 2022, published 2024).

Bounds are passed on as bounds.

The target of the experiment is T1, CDK2 (Homo sapiens, UniProt P24941).
T1 construct: endogenous in cells; host or cells: MKN1 cells
The experiment is described as follows: CDK2 degradation in MKN1 cells (AlphaLISA). It counts as cell-based. Particulars: 14 h incubation; for DC50: read-out: CDK2 degradation 14 h: Mean external-Abs DC50. Further details: key to CDK2 degradation 14 h: Mean external-Abs DC50 (nM): A (<100 nM); B (≥100-500 nM); C (>500-1000 nM); D (>1000 nM); E (not achieved). Put shortly: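 DC50 from four-parameter logistic fit of AlphaLISA CDK2 signal, corrected for no-cell wells. Lysates came from MKN1 cells, 2e4 per well, exposed 14 h at 37° C to compound at 0.001 nM-10 μM (1:5 series, 11 doses) in 0.1% DMSO.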
(Bead proximity is the source of the signal in Alpha formats.)

In general, DC50 refers to the concentration at which degradation of the target reaches its halfway point. With `Cc1cc(S(=O)(=O)C2CC3(CCN(CC4CCN(c5ccc(NC6CCC(=O)NC6=O)c6ccccc56)CC4)CC3)C2)ccc1Nc1ncc2ccc(=O)n(C(C)C)c2n1` (stereo not shown) [I-206], the “CDK2 degradation 14 h: Average Dmax %” value was “B (B (>50% -75%))” and the DC50 fell in the range of 100 to 500 nM.
For `Cc1cc(S(=O)(=O)C2CC3(CCN(C(=O)COC4CN(c5ccc6c(c5F)n(C)c(=O)n6C5CCC(=O)NC5=O)C4)CC3)C2)ccc1Nc1ncc2ccc(=O)n(C3CCCC3)c2n1` (stereo not shown) [I-259], the “CDK2 degradation 14 h: Average Dmax %” value is “D (D (<25%))” and the DC50 is over 1000 nM.
For `Cc1cc(S(=O)(=O)N[C@H]2C[C@H](N3CCN(CC4CCN(c5ccc(NC6CCC(=O)NC6=O)cc5C)CC4)CC3)C2)ccc1Nc1ncc2ccc(=O)n(C3CCCC3)c2n1` (stereo partly shown) [I-276], the “CDK2 degradation 14 h: Average Dmax %” value is given as “A (A (>75% o))” and the DC50 is under 100 nM.
For `Cc1cc(S(=O)(=O)N2CCC(Cn3cnc4c3CCN(c3ccc5c(c3F)n(C)c(=O)n5C3CCC(=O)NC3=O)C4)CC2)ccc1Nc1ncc2ccc(=O)n(C3CCCC3)c2n1` (stereo not shown) [I-280], the “CDK2 degradation 14 h: Average Dmax %” value was “C (C (>25% -50%))” and the DC50 was over 1000 nM.
In the case of `Cc1cc(S(=O)(=O)C2CC3(CCN(CC4CCN(c5ccc6c(c5F)n(C)c(=O)n6C5CCC(=O)NC5=O)CC4)CC3)C2)ccc1Nc1ncc2cc(Cl)c(=O)n(C(C)C3CC3)c2n1` (stereo not shown) [I-285], the “CDK2 degradation 14 h: Average Dmax %” value was “A (A (>75% o))” and the DC50 was under 100 nM.
With `Cc1cc(S(=O)(=O)C2CC3(CCN(CC4CCN(c5ccc6c(c5F)n(C)c(=O)n6C5CCC(=O)NC5=O)CC4)CC3)C2)ccc1Nc1cc2c(ccc(=O)n2C2CCCC2)cn1` (stereo not shown) [I-286], the “CDK2 degradation 14 h: Average Dmax %” value was “A (A (>75% o))” and the DC50 was under 100 nM.
Consider `Cc1cc(S(=O)(=O)N2CCC(CCN3CCN(c4ccc5c(c4F)n(C)c(=O)n5C4CCC(=O)NC4=O)CC3)CC2)ccc1Nc1ncc2ccc(=O)n(C3CCCC3)c2n1` (stereo not shown) [I-287], for which the “CDK2 degradation 14 h: Average Dmax %” value is “A (A (>75% o))” and the DC50 was under 100 nM.
For `Cc1cc(S(=O)(=O)C2CC3(CCN(CC4CCN(c5ccc6c(oc(=O)n6C6CCC(=O)NC6=O)c5F)CC4)CC3)C2)ccc1Nc1ncc2cc(Cl)c(=O)n(C3CCCC3)c2n1` (stereo not shown) [I-302], the “CDK2 degradation 14 h: Average Dmax %” value is listed as “A (A (>75% o))” and the DC50 is under 100 nM.
With `Cc1cc(S(=O)(=O)C2CC3(CCN(CC4CCN(c5cnc6c(c5)c(C)cn6C5CCC(=O)NC5=O)CC4)CC3)C2)ccc1Nc1ncc2cc(Cl)c(=O)n(C3CCCC3)c2n1` (stereo not shown) [I-305], the “CDK2 degradation 14 h: Average Dmax %” value is “A (A (>75% o))” and the DC50 fell in the range of 100 to 500 nM.
As for `Cc1cc(S(=O)(=O)NCCOC2CCC(CN3CCN(c4ccc(NC5CCC(=O)NC5=O)cc4C)CC3)CC2)ccc1Nc1ncc2cc(Cl)c(=O)n(C3CCCC3)c2n1` (stereo not shown) [I-308], the “CDK2 degradation 14 h: Average Dmax %” value was “A (A (>75% o))” and the half-maximal degradation concentration (DC50) was under 100 nM.
On the same counts, the results for `CCOc1cc(NC2CCC(=O)NC2=O)ccc1N1CCC(CN2CCC3(CC2)CC(S(=O)(=O)c2ccc(Nc4ncc5cc(Cl)c(=O)n(C6CCCC6)c5n4)c(C)c2)C3)CC1` (stereo not shown) [I-309] are “A (A (>75% o))” and 100 to 500 nM.
For `Cc1cc(S(=O)(=O)C2CC3(CCN(CC4CCN(c5ccc6c(N7CCC(=O)NC7=O)nn(C)c6c5F)CC4)CC3)C2)ccc1Nc1ncc2cc(Cl)c(=O)n(C3CCCC3)c2n1` [I-325], the “CDK2 degradation 14 h: Average Dmax %” value is on record as “A (A (>75% o))” and the DC50 is under 100 nM.
`Cc1cc(S(=O)(=O)C2CC3(CCN(CC4CCN(c5ccc(NC6CCC(=O)NC6=O)c(Cl)c5)CC4)CC3)C2)ccc1Nc1ncc2cc(Cl)c(=O)n(C3CCCC3)c2n1` (stereo not shown) [I-329]: the “CDK2 degradation 14 h: Average Dmax %” value is given as “A (A (>75% o))” and the 50% degradation concentration (DC50) was under 100 nM.
As for `Cc1cc(S(=O)(=O)C2CC3(CCN(CC4CCN(c5cccc(NC6CCC(=O)NC6=O)c5C)CC4)CC3)C2)ccc1Nc1ncc2cc(Cl)c(=O)n(C3CCCC3)c2n1` (stereo not shown) [I-332], the “CDK2 degradation 14 h: Average Dmax %” value was “A (A (>75% o))” and the DC50 lay in the range of 100 to 500 nM.
With `Cc1cc(S(=O)(=O)N2CCC(CN(C)C3CCN(c4cccc5c4n(C)c(=O)n5C4CCC(=O)NC4=O)CC3)CC2)ccc1Nc1ncc2cc(C(F)(F)F)c(=O)n(C3CCCC3)c2n1` (stereo not shown) [I-341], the “CDK2 degradation 14 h: Average Dmax %” value is recorded as “A (A (>75% o))” and the DC50 is under 100 nM.
Regarding `Cc1cc(S(=O)(=O)N2CCC(CN(C)C3CCN(c4cccc5c4n(C)c(=O)n5C4CCC(=O)NC4=O)CC3)CC2)ccc1Nc1ncc2cc(F)c(=O)n(C3CCCC3)c2n1` (stereo not shown) [I-342], the “CDK2 degradation 14 h: Average Dmax %” value was “A (A (>75% o))” and the DC50 is under 100 nM.
Consider `Cc1cc(S(=O)(=O)NC2CC3(CCN(CC4CCN(c5cccc6c5n(C)c(=O)n6C5CCC(=O)NC5=O)CC4)CC3)C2)ccc1Nc1ncc2cc(Cl)c(=O)n(C3CCCC3)c2n1` (stereo not shown) [I-347], for which the “CDK2 degradation 14 h: Average Dmax %” value is reported as “A (A (>75% o))” and the DC50 is under 100 nM.
Consider `Cc1cc(S(=O)(=O)N2CCC(N(CC(F)F)CC3CCN(c4cccc5c4n(C)c(=O)n5C4CCC(=O)NC4=O)CC3)CC2)ccc1Nc1ncc2cc(Cl)c(=O)n(C3CCCC34CC4)c2n1` (stereo not shown) [I-353], for which the “CDK2 degradation 14 h: Average Dmax %” value is on record as “D (D (<25%))” and the DC50 is over 1000 nM.
Consider `Cc1cc(S(=O)(=O)N2CCC(CN(CC(F)(F)F)C3CCN(c4cccc5c4n(C)c(=O)n5C4CCC(=O)NC4=O)CC3)CC2)ccc1Nc1ncc2cc(Cl)c(=O)n(C3CCCC34CC4)c2n1` (stereo not shown) [I-354], for which the “CDK2 degradation 14 h: Average Dmax %” value is “D (D (<25%))” and the half-maximal degradation concentration (DC50) was over 1000 nM.
With `Cc1cc(S(=O)(=O)N2CCC(N(C)CC3CCN(c4cccc5c4n(C)c(=O)n5C4CCC(=O)NC4=O)CC3)C(F)(F)C2)ccc1Nc1ncc2cc(Cl)c(=O)n(C3CCCC34CC4)c2n1` (stereo not shown) [I-355], the “CDK2 degradation 14 h: Average Dmax %” value is on record as “D (D (<25%))” and the 50% degradation concentration (DC50) is over 1000 nM.
Turning to `Cc1cc(S(=O)(=O)N2CCC(CN(CC(F)F)C3CCN(c4cccc5c4n(C)c(=O)n5C4CCC(=O)NC4=O)CC3)CC2)ccc1Nc1ncc2cc(Cl)c(=O)n(C3CCCC34CC4)c2n1` (stereo not shown) [I-356], the “CDK2 degradation 14 h: Average Dmax %” value is on record as “D (D (<25%))” and the DC50 is over 1000 nM.
On to `Cc1cc(S(=O)(=O)N2CCC(N(C)CC3(F)CCN(c4cccc5c4n(C)c(=O)n5C4CCC(=O)NC4=O)CC3)CC2)ccc1Nc1ncc2cc(Cl)c(=O)n(C3CCCC34CC4)c2n1` (stereo not shown) [I-357], for which the “CDK2 degradation 14 h: Average Dmax %” value is on record as “B (B (>50% -75%))” and the “CDK2 degradation 14 h: Mean external-Abs DC50 (nM)” value was “E”.
`Cc1cc(S(=O)(=O)N2CCC(F)(CN(C)C3CCN(c4cccc5c4n(C)c(=O)n5C4CCC(=O)NC4=O)CC3)CC2)ccc1Nc1ncc2cc(Cl)c(=O)n(C3CCCC34CC4)c2n1` (stereo not shown) [I-358]: the “CDK2 degradation 14 h: Average Dmax %” value is listed as “B (B (>50% -75%))” and the DC50 lay within 500 to 1000 nM.
Taken in the same sequence, the figures for `Cc1cc(S(=O)(=O)N2CCC(N(C)CC3CCN(c4cccc5c4n(C)c(=O)n5C4CCC(=O)NC4=O)CC3)CC2)ccc1Nc1ncc2cc(Cl)c(=O)n(C3CCCC34CC4)c2n1` (stereo not shown) [I-359] were “A (A (>75% o))” and under 100 nM.
With `COc1ccc2c(c1N1CCC(N(C)CC3CCN(S(=O)(=O)c4ccc(Nc5ncc6cc(Cl)c(=O)n(C(C)C)c6n5)c(C)c4)CC3)CC1)n(C)c(=O)n2C1CCC(=O)NC1=O` (stereo not shown) [I-379], the “CDK2 degradation 14 h: Average Dmax %” value is listed as “A (A (>75% o))” and the DC50 is under 100 nM.
On the same counts, the results for `Cc1cc(S(=O)(=O)N2CCC3(CCN(c4cccc5c4n(C)c(=O)n5C4CCC(=O)NC4=O)CC3)CC2)ccc1Nc1ncc2cc(Cl)c(=O)n(C(C)C)c2n1` (stereo not shown) [I-380] are “D (D (<25%))” and over 1000 nM.
As for `Cc1cc(S(=O)(=O)N2CCC3(CCN(CC4CCN(c5ccc6c(c5)n(C)c(=O)n6C5CCC(=O)NC5=O)CC4)CC3)CC2)ccc1Nc1ncc2cc(Cl)c(=O)n(C3CCCC3)c2n1` (stereo not shown) [I-381], the “CDK2 degradation 14 h: Average Dmax %” value was “A (A (>75% o))” and the 50% degradation concentration (DC50) was under 100 nM.
In the case of `Cc1cc(S(=O)(=O)N2CCC(N3CCC(CN(C)c4cccc5c4n(C)c(=O)n5C4CCC(=O)NC4=O)CC3)CC2)ccc1Nc1ncc2cc(C(F)F)c(=O)n(C3CCCC34CC4)c2n1` (stereo not shown) [I-383], the “CDK2 degradation 14 h: Average Dmax %” value is listed as “A (A (>75% o))” and the DC50 is under 100 nM.
As for `Cc1cc(S(=O)(=O)N2CCN(CCC3CCN(c4cccc5c4n(C)c(=O)n5C4CCC(=O)NC4=O)CC3)CC2)ccc1Nc1ncc2cc(Cl)c(=O)n(C(C)C)c2n1` (stereo not shown) [I-393], the “CDK2 degradation 14 h: Average Dmax %” value is “B (B (>50% -75%))” and the DC50 is 100 to 500 nM.
Taken in the same sequence, the figures for `Cc1cc(S(=O)(=O)NCCN2CCN(CC3CCN(c4ccc5c(c4)n(C)c(=O)n5C4CCC(=O)NC4=O)CC3)CC2)ccc1Nc1ncc2cc(Cl)c(=O)n(C(C)C)c2n1` (stereo not shown) [I-397] were “A (A (>75% o))” and under 100 nM.
As for `Cc1cc(S(=O)(=O)NCCCN2CCN(C3CCN(c4ccc5c(c4)n(C)c(=O)n5C4CCC(=O)NC4=O)CC3)CC2)ccc1Nc1ncc2cc(Cl)c(=O)n(C(C)C)c2n1` (stereo not shown) [I-398], the “CDK2 degradation 14 h: Average Dmax %” value is listed as “A (A (>75% o))” and the 50% degradation concentration (DC50) was under 100 nM.
As for `Cc1cc(S(=O)(=O)NCCCN2CCN(CC3CCN(c4ccc5c(c4)n(C)c(=O)n5C4CCC(=O)NC4=O)CC3)CC2)ccc1Nc1ncc2cc(Cl)c(=O)n(C(C)C)c2n1` (stereo not shown) [I-400], the “CDK2 degradation 14 h: Average Dmax %” value is on record as “A (A (>75% o))” and the DC50 is under 100 nM.
Consider `Cc1cc(S(=O)(=O)NCCOCCOCCNC(=O)COc2ccc(C3CCC(=O)NC3=O)cc2)ccc1Nc1ncc2cc(Cl)c(=O)n(C3CCCC3)c2n1` (stereo not shown) [I-401], for which the “CDK2 degradation 14 h: Average Dmax %” value is on record as “B (B (>50% -75%))” and the DC50 was under 100 nM.
For `Cc1cc(S(=O)(=O)NCCOCC2CCN(c3ccc(N4CCC(=O)NC4=O)cc3)CC2)ccc1Nc1ncc2cc(Cl)c(=O)n(C3CCCC3)c2n1` [I-409], the “CDK2 degradation 14 h: Average Dmax %” value is listed as “C (C (>25% -50%))” and the DC50 was over 1000 nM.
For `Cc1cc(S(=O)(=O)NCCCCCC2CCN(c3ccc(N4CCC(=O)NC4=O)cc3)CC2)ccc1Nc1ncc2cc(Cl)c(=O)n(C3CCCC3)c2n1` [I-410], the “CDK2 degradation 14 h: Average Dmax %” value is recorded as “C (C (>25% -50%))” and the DC50 is over 1000 nM.
